Molecular target: T1, Adenosine receptor A1 (Bos taurus, UniProt P28190)
T1 sequence (P28190 whole entry): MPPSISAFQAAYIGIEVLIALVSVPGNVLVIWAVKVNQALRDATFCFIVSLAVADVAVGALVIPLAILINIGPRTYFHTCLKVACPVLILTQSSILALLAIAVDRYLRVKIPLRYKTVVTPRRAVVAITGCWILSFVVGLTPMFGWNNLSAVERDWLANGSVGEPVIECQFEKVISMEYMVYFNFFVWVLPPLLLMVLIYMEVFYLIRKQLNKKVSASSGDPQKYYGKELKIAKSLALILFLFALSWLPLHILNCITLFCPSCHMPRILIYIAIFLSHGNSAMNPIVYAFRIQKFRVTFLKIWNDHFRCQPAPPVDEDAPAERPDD
Test: Displacement of [3H]phenylisopropyladenosine from adenosine A1 receptor in bovine cerebral cortex membrane
Type: cell membranes

IC50: 17 nM
SMILES: COc1cc(-c2oc3c(OC)cc(CCCO)cc3c2C=O)ccc1O

— ChEMBL document CHEMBL1158276, “Synthesis of 5-(3-Hydroxypropyl)-7-methoxy-2-(3-methoxy-4-hydroxyphenyl)-3- benzo[ b ]furancarbaldehyde, a Novel Adenosine A 1 Receptor Ligand from the Root of Salvia miltiorrhiza” (J Nat Prod, 1996)
